Measurements as given in PMC7738205 (Cell Cycle, 2020).
Entries after “also recorded” stand apart in the source; their conditions may differ.

Tests used:
[1] = test system: SARS-CoV-2 strain USA-WA1/2020; type: cell-based; conditions: dNHBE cells, conversion of 5.55 µM
[2] = test system: human bronchial epithelial lining cells; assay: Cytotoxicity in human bronchial epithelial lining cells; type: cell-based
[3] = test system: human epithelial airway cells; conditions: 1 µM dose; cited from earlier work
MA-104 cells = conditions: visual or neutral red reads

SMILES | average EC90 expressed [1] | observed cytotoxicity at highest dose given ([2]; 30 µM) | toxicity in human epithelial airway cells [3] | cytotoxicity to MA-104 cells (MA-104 cells) | observed cytotoxicity at highest dose given ([2]; 1.66 µM)
CC#C[C@]1(O)CCC2C3CCC4=CC(=O)CCC4=C3[C@@H](c3ccc4c(c3)OCO4)C[C@@]21C (some centres unmarked) [PT150] | 3130 ng/mL | No cytotoxicity; also recorded: no observed cytotoxicities | absence of toxicity | significant cytotoxicity | –
CCC(CC)COC(=O)[C@H](C)N[P@](=O)(OC[C@H]1O[C@@](C#N)(c2ccc3c(N)ncnn23)[C@H](O)[C@@H]1O)Oc1ccccc1 [Remdesivir, reference compound] | – | – | – | – | no observed cytotoxicities
